# Experimental data as given in US20190390277A1, “DIAGNOSIS OF PARKINSON'S DISEASE ON THE BASIS OF DECREASED OVERALL TRANSLATION” (ÅBO AKADEMI UNIVERSITY, priority 2016, published 2019).
# Entries after “also recorded” stand apart in the source; their conditions may differ.
# Tests used:
# hippocampal neurons [1] = test: S35-methionine metabolic labelling of de novo protein synthesis in hippocampal neurons; format: cell-based; conditions: rotenone 0.01-10 μM, 2 hr
# Experimental: Methods. Measurement of protein translation using various S35-methioine-labelling—In order to model PD in vitro, hippocampal neurons were metabolically labelled with S35-methionine. Hippocampal neurons in 24 well plates were transferred to Met/Cys-free medium (Invitrogen, Gibco). Cells were treated with for 30 min 37 C, 5% CO2. 50 μl per well of labeling medium (100 μCi Met-S35/ml) was added and cells grown at 37°, 5% CO2 for 2 hr in the presence or absence of rotenone (0.01-10 μM). Cells were washed and lysed in 75 μl Laemmli lysis buffer. Samples were separated by SDS PAGE, incubated with EN3HANCE (NEN), gels dried and exposed to auto-radiographic film with intensifying screen to determine relative levels of de novo protein synthesis.
# Lrrk2 [2] = target: T1, Lrrk2 (Mesocricetus auratus, UniProt A0A1U7Q7Z2); test: LRRK2 activity by phospho-S935-LRRK2 immunoblot in BHK21 cells; format: cell-based; conditions: intact BHK21 cells, rotenone 4 h
# T1 construct: endogenous in cells; host or cells: BHK21 cells
# T1 sequence (A0A1U7Q7Z2 1-2527): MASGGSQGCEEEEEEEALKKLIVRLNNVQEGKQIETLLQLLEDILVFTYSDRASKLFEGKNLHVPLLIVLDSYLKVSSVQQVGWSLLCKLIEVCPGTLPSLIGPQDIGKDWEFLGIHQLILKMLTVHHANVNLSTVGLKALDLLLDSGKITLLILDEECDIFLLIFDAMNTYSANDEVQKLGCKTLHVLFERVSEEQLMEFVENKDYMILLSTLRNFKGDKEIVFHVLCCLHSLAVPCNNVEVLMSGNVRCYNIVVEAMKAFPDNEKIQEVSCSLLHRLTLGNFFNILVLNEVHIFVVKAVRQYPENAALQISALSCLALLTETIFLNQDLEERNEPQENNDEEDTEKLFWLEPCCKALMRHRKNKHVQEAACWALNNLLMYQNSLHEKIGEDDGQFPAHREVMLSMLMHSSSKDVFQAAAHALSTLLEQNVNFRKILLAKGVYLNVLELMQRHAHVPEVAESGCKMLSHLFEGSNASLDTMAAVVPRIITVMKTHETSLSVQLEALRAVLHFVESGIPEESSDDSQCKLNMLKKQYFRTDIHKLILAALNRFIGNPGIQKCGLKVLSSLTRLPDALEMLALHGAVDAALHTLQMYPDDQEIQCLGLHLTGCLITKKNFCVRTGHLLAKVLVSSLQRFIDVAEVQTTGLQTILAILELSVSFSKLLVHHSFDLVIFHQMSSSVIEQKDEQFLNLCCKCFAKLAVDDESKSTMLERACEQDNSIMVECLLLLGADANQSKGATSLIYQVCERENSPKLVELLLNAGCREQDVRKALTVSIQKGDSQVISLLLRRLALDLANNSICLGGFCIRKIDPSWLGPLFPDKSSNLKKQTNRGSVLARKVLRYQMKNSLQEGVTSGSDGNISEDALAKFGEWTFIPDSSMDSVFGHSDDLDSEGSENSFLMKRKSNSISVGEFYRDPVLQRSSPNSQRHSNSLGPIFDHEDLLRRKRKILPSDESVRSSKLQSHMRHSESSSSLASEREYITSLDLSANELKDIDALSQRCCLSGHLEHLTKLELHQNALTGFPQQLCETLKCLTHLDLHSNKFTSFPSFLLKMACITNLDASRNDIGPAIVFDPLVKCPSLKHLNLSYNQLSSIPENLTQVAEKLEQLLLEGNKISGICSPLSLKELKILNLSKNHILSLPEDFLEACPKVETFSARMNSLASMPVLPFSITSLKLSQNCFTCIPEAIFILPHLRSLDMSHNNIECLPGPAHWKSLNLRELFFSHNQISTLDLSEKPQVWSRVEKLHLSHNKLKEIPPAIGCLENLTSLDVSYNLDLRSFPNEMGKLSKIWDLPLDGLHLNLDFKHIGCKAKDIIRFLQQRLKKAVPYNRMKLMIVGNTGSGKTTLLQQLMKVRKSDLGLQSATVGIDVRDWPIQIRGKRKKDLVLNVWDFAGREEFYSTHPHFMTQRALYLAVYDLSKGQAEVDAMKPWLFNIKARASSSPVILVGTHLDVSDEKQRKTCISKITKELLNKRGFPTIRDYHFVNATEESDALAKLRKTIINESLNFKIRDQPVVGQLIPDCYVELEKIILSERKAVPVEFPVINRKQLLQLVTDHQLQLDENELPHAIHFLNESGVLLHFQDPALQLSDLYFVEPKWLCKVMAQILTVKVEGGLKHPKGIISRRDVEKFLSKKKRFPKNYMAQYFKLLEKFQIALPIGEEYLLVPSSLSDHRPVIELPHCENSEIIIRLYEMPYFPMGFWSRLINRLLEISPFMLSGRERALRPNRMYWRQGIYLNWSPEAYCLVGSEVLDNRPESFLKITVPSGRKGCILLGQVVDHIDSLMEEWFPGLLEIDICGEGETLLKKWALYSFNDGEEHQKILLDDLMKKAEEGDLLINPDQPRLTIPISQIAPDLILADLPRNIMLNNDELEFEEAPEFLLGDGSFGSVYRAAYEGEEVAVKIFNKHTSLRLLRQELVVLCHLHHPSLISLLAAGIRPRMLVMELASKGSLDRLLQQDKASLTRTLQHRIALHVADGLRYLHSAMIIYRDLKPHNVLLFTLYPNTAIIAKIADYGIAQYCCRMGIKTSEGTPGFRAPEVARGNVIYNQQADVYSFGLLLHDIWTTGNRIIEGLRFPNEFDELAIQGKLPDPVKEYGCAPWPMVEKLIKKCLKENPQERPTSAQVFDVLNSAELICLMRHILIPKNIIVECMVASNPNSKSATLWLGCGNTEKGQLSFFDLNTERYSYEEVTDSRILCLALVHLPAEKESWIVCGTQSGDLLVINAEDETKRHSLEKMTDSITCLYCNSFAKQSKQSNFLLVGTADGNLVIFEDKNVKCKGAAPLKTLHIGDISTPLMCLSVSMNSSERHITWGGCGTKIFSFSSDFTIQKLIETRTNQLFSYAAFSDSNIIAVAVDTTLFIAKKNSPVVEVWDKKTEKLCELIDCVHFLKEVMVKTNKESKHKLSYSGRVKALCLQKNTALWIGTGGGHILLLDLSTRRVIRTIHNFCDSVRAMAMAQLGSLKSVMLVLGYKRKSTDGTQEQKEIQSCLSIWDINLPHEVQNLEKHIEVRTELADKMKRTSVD
# Experimental: Methods. To examine the effect of rotenone treatment on LRRK2 activity, BHK21 cells were treated with or without the indicated dose of rotenone for 4 h. Cells were lysed in Laemmli buffer and proteins separated by SDS PAGE. LRRK2 activity was determined by immunoblotting with an antibody detecting phospho-S935-LRRK2. Blots were reprobed with an antibody detecting LRRK2 to establish loading variability. LRRK2 activity was quantified by densitometry of gel exposures captured using the Gel Doc XR system (Biorad).
# dopaminergic neurons [3] = test: Rotenone-induced neurite atrophy of TH-positive dopaminergic neurons in midbrain cultures; format: cell-based, rat; conditions: 24 h; for effect on rotenone induced loss of neurites in dopaminergic neurons: LRRK2-IN1 1 μM, GSK-2578215A 1 μM, MLi-2 10 or 50 nM, with rotenone
# Experimental: The cultures were immunostained for Tyrosine hydroxylase to identify dopaminergic neurons. The percentage of dopaminergic, TH-positive cells that had intact neurites are shown. […] Mean data +/− standard deviation from two independent experiments are shown. Over 300 cells were scored per condition. b) A representative fluorescence micrograph showing TH immunostaining (green) dopaminergic neurons is shown. (c,d) Treatment with three structurally different LRRK2 inhibitors, LRRK2-IN1 (1 μM), GSK-2578215A (1 μM) or MLi-2 (10 or 50 nM) prevented rotenone induced loss of neurites in the dopaminergic neurons. […] Standard errors of the mean are shown. #, p<0.0001.
# Methods. Rotenone treatment of cell cultures—Midbrain neurons from P0 rat were plated at a density of 200,000 cells per well. At 3 days in vitro, cells were treated with rotenone in DMSO with or without IN1, GSK-2578215A of MLi-2 at the concentrations indicated. After 24 h, cells were fixed with 4% PFA in PBS and tyrosine hydroxylase (TH) was detected by standard immunostaining methods obvious to those skilled in the art. Cells were imaged using a Zeiss AxioVert 200M microscope. To measure atrophy, the % of TH-positive neurons with intact neurites was scored.
# hippocampal neurons [4] = test: FUNCAT (AHA/Alexa-488) protein translation in hippocampal neurons; format: cell-based, rat; conditions: for dose (as low as) at which protein synthesis was significantly increased: hippocampal neuron somas and dendrites; for level of de novo protein synthesis (fluorescence intensity): hippocampal neurons, soma and dendrites
# Source text: Objective. To test whether Lrrk2 regulated ribosomal function in neurons, we measured the effect of three structurally independent inhibitors of Lrrk2 on de novo protein synthesis using non-canonical amino acid labeling. Rat hippocampal neurons were labelled using L-azido-homoalanine (AHA), a methionine analogue, followed by copper-I-catalyzed alkyne-azide cycloaddition of Alexa-488 with an alkyne moiety to visualize newly synthesized proteins, as previously de-scribed^8.
# Methods. Measuring protein translation in hippocampal neurons using FUNCAT. To measure protein translation, hippocampal neurons were plated at densities of 100,000 cells per well on round coverslips (1.3 cm diameter) in 24-well plates. Protein translation was measured following 20 h after plating. Cells were washed once and incubated with methionine-free DMEM medium (Gibco, Thermo Fisher Scientific) supplemented with 2 mM glutamine. Then 1 mM L-azidohomoalanine (AHA) was added for 30 min. Cells were washed with 1 ml PBS and fixed with 4% paraformaldehyde. LRRK2 inhibitors, when used, were added in the methionine-free medium and retained throughout the AHA labelling procedure. Cells were permeabilized in block solution (0.25% Triton X100, 0.2% BSA, 5% sucrose, 10% horse serum in PBS), and washed 5 times with 1 ml of 3% BSA in PBS. In situ labeling with AHA was achieved using a click-it reaction to covalently Alexa-488, using reagents from ThermoFisher Life Technologies (catalogue #A10267). Coverslips were mounted in Mowiol containing 2.5% 1,4-Diazabicyclo[2.2.2]octane. Fluorescent images were acquired using a Leica DMRE microscope and Hamamatsu Photonics ORCA C4742-95 CCD camera and Zen software (Carl Zeiss). Mean fluorescence intensities were measured from regions of interest in the perisomal region. Dendrite measurements were taken from line intensities (10 μm lines from the soma into the dendrite).
# patient skin fibroblasts = test: Nascent protein synthesis (AHA/Alexa-488) in PD patient skin fibroblasts; format: cell-based, human; conditions: sporadic and G2019S PD fibroblasts; 1 μM IN1 or 0.01 μM MLi-2
# Experimental: Methods. For FIG. 7, we measured mRNA translation in fibroblasts cultivated from patient skin biopsies using the non-canonical labelling approach outlined in example 4 with the following modifications. Fibroblasts were passaged upon reaching 95% confluence and assayed at passage 7-9. For measurement of nascent protein synthesis, fibroblasts at 48 h post plating were depleted of methionine and incubated with AHA, followed by AHA-click conjugation of Alexa-488 as described in the methods section of example 4. Average somatic fluorescent intensities were measured. As not all fibroblast lines could be assayed simultaneously, patient lines were paired with one or more control lines of equivalent passage and assayed on the same day.
# BHK21 cells = test: Protein translation by AHA labelling and click Alexa-488 in rotenone-treated BHK21 cells; format: cell-based; conditions: rotenone 100 nM, 1 μM LRRK2-IN1
# Experimental: Furthermore, LRRK2-G2019S directly impairs protein translation in a reconstituted translation system. a) LRRK2 activity is inferred using a phospho-specific antibody ([…]) that recognises the active form of LRRK2. b) Quantitative data from 6 independent repeats as shown in (a). c, d) To determine whether inhibition of LRRK2 kinase activity could recover normal protein translation in cultured cells, BHK21 cells were treated with or without rotenone (100 nM) in the presence or absence of the indicated concentration of LRRK2-IN1. Protein translation was measured using non-canonical amino acid labelling with AHA followed by copper-catalysed click addition of alkyne-Alexa-488. Representative fluorescent micrographs (c) and quantitative data (d) are shown. […] Standard errors of the mean are plotted. #, p<0.0001.
# To determine whether inhibition of LRRK2 activity could recover normal translation in BHK21 cells following rotenone treatment, BHK21 cells with or without prior treatment (30 min) with LRRK2 inhibitor (1 or 10 μM of IN1) were treated with rotenone or carrier (control) as indicated. Translation was visualized following AHA labeling and immunofluorescence quantified as earlier.
# Lrrk2 [5] = target: Lrrk2 (Homo sapiens, UniProt Q5S007); conditions: blocks Lrrk2; read-out: biochemical IC50; cited from earlier work
# Lrrk2 (Homo sapiens, UniProt Q5S007), sequence (Q5S007 whole entry, species assumed): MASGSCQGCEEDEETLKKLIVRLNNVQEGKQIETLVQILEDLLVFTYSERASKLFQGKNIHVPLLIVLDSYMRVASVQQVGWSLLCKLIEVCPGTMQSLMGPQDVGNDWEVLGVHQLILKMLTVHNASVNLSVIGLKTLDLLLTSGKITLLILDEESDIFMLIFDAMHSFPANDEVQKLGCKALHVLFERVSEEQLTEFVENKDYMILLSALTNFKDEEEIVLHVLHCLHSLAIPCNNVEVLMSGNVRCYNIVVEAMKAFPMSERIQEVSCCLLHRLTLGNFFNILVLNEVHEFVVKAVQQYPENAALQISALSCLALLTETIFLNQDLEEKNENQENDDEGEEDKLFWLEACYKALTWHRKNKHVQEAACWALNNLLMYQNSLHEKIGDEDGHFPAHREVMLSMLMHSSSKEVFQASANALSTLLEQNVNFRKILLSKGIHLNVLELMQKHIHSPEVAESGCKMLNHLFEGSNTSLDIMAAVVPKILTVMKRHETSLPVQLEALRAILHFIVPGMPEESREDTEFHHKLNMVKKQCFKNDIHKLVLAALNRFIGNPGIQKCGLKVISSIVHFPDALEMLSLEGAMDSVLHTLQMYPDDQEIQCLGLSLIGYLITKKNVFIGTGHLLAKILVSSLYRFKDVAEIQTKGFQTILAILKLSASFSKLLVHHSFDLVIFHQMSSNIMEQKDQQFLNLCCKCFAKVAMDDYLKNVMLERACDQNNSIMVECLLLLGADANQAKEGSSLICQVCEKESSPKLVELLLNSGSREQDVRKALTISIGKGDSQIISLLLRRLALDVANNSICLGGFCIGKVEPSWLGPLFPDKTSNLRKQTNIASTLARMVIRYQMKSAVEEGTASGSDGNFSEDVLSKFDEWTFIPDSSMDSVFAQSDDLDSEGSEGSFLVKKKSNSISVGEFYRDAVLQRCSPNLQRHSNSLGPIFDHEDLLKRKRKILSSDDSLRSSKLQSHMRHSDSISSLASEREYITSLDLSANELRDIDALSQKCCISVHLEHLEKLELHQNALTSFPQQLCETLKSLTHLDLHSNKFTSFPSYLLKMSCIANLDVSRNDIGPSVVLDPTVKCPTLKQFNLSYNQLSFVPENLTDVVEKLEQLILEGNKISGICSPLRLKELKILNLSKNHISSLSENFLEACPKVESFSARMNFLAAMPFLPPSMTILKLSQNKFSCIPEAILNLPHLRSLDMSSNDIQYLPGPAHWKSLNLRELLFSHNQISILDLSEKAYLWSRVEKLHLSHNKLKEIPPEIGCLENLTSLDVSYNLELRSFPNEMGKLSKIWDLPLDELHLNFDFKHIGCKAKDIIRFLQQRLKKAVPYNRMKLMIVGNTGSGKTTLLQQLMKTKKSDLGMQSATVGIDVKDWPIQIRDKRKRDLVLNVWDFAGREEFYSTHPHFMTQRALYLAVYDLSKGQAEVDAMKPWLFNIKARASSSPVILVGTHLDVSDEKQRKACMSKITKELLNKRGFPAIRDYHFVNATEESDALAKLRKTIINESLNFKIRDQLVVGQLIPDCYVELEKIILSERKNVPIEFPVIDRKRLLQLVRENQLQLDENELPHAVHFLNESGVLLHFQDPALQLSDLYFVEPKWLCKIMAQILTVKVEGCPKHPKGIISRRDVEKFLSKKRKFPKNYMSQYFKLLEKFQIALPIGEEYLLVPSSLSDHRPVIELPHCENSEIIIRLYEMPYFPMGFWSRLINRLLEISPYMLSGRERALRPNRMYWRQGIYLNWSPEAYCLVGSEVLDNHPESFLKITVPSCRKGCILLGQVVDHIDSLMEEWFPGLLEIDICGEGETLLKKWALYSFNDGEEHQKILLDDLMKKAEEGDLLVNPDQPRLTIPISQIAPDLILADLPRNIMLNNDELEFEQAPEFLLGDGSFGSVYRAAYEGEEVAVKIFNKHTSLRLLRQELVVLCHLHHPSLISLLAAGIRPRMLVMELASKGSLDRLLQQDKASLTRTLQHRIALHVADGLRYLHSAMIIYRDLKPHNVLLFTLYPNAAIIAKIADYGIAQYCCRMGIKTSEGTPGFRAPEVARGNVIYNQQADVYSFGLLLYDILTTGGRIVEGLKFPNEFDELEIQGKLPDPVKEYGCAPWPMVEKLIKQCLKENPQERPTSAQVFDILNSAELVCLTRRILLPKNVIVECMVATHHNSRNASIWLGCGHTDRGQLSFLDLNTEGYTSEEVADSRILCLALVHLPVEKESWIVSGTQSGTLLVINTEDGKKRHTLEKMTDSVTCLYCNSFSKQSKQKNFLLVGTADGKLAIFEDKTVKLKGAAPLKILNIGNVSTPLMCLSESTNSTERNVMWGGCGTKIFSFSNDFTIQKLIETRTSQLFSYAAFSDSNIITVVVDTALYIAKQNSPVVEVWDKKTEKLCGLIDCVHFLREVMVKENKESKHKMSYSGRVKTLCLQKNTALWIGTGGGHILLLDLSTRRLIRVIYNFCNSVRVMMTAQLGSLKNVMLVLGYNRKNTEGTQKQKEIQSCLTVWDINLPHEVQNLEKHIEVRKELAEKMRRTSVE
# dopaminergic neurons [6] = test: FUNCAT protein translation in midbrain cultures (dopaminergic neurons); format: cell-based; conditions: TH-positive neurons, 3 days post-plating
# Source text: FIG. 6 uses click chemistry to label newly synthesised proteins with AHA. […] Dopaminergic neurons are visualised by tyrosine hydroxylase (TH) staining. a) Representative images of midbrain cultures treated with increasing concentrations of Lrrk2 IN2, and stained for TH is shown. b,c) protein translation in the somas of TH-positive and TH-negative cells is shown. d) The effect of anisomycin (to inhibit translation) on mid brain culture de novo protein synthesis is shown by representative images. e) Quantitative data from d is shown. p-values are shown on the graphs above the data points to which they apply.
# Methods. To measure protein translation in dopaminergic neurons, mid brain cultures were plated at densities of 500,000 cells per well on round coverslips (1.3 cm diameter) in 24-well plates. At 3 days post-plating neurons underwent FUNCAT (see example 4). Dopaminergic neurons were detected by tyrosine hydroxylase immunofluorescence. Fluorescent intensity was measured as described in example 4 (methods).
# PBMCs and fibroblasts = test: AHA labelling, biotin-alkyne enrichment and anti-biotin-HRP immunoblot of nascent proteins in PBMCs and fibroblasts; format: cell-based, human; conditions: AHA-labelled PBMCs and fibroblasts, streptavidin bead purification
# Source text: Patient samples were from the NINDS-Coriell Institute in the USA, the European Biobank in Milan and the Turku University Hospital (T.U.H.) cohort in Finland. a) A heat map showing intensity values for MS/MS-identified nascent proteins from AHA-labelled cells (fibroblasts and PBMCs). Nascent proteins were isolated following covalent linkage to alkyne-agarose beads. After tryptic digestion, the released peptides were sequenced by mass spectrometry and identified using Maxquant software. As negative controls to determine non-specific protein binding, cells were labelled with methionine instead of AHA. […] This approach yields a set of peptides that can be rapidly quantitated using a mass spectrometer using data dependant acquisition (DDA) using Selected Reaction Monitoring or Parallel Reaction Monitoring or by data independent acquisition (DIA) or using other types of mass spectrometry methods. […] It is compared to samples that were labelled with methionine instead of AHA. […]
# Sepharose was washed 2× with 1 ml LiCl buffer (500 mM LiCl2, 100 mM Tris, pH 7.6, 0.1% TX100, 1 mM DTT), followed by 4×1 ml PBS washes. […] Samples were either in-gel digested with trypsin for MS/MS identification (example 1) or transferred to nitrocellulose for quantitative immunoblot detection using an anti-biotin, horse-radish peroxidase (HRP)-conjugated antibody (Cell Signalling Technology) (example 9b). […]
Compound,effect on rotenone induced loss of neurites in dopaminergic neurons (dopaminergic neurons [3]),dose (as low as) at which protein synthesis was significantly increased (hippocampal neurons [4]),level of de novo protein synthesis (fluorescence intensity) (hippocampal neurons [4]),reversal of decreased protein synthesis in PD patient fibroblasts (patient skin fibroblasts),other results
C=C(C)[C@H]1Cc2c(ccc3c2O[C@@H]2COc4cc(OC)c(OC)cc4[C@@H]2C3=O)O1 [Rotenone],,,,,de novo protein synthesis (S35-methionine labelling) (hippocampal neurons [1]): dose-dependently decreased; LRRK2 activity (phospho-S935-LRRK2) (Lrrk2 [2]): dose dependently increased; percentage of TH-positive cells with intact neurites (dopaminergic neurons [3]; rotenone 0-100 nM): induced atrophy; also recorded: dose dependent loss of neurites
O=C(Nc1cccnc1)c1cc(-c2ccnc(F)c2)ccc1OCc1ccccc1 [GSK-2578215A],prevented,0.1 µM,,,
3-(4-Pyrinimidyl) Indazole [MLi-2],prevented,0.01 µM,increased,reversed to a normal level,
COc1cc(C(=O)N2CCC(N3CCN(C)CC3)CC2)ccc1Nc1ncc2c(n1)N(C)c1ccccc1C(=O)N2C [LRRK2-IN1],prevented,0.1 µM,,reversed,protein translation level after rotenone (BHK21 cells): recovered to control level; IC50 (Lrrk2 [5]): 10 nM
COc1ccc(C[C@H]2NC[C@H](O)[C@H]2OC(C)=O)cc1 [Anisomycin],,,effectively inhibited,,protein translation (fluorescence) (dopaminergic neurons [6]): effectively reduced; anti-biotin immunoblot signal of nascent proteins (PBMCs and fibroblasts): no signal
